According to patent publication US20120309776A1, “PYRROLO[2,3-D]PYRIMIDINE UREA COMPOUNDS AS JAK INHIBITORS” (Pfitzer Inc., priority 2010, published 2012):

System: T-cell proliferation in canine whole blood (ConA and canine IL-2 stimulated)
Experiment: Canine in vitro T-cell Proliferation Assay
Assay type: cell-based, beagle dogs
Conditions: Canis lupus familiaris, ConA 1 μg/ml + canine IL-2 50 ng/ml, tritiated thymidine incorporation, average assay results
Method: Introduction: T-cell activation plays a key role in a variety of inflammatory and autoimmune disorders as well as asthma, allergies and pruritus. Since T-cell activation can, in part, can be triggered by cytokines that signal through the JAK-STAT pathway, a JAK inhibitor could be effective against such diseases involving aberrant T-cell activation. […] Methods: Canine whole blood is collected in heparin sulfate tubes from beagle dogs. Whole blood (20 μL) is plated in 96-well plates (Costar) with 180 μL of DMEM complete medium (Dublecco's Modified Eagle Medium; 10% heat inactivated fetal bovine serum; 100 u/ml penicillin; 100 ug/mL streptomycin, from Gibco) containing vehicle control or test compound (0.001 to 10 μM), concanavalin A (ConA; 1 μg/ml), and canine interleukin-2 (IL-2; 50 ng/ml). Wells containing whole blood, medium with vehicle control and no ConA or IL-2 are used as background (BKG) controls. Plates are incubated at 37° C. for 48 hrs. Tritiated thymidine, 0.4 μCi/well (Perkin Elmer), is added for 20 additional hours. Plates are frozen and then thawed, washed and filtered using a Brandel MLR-96 cell harvester and prewet filter mats (Wallac 1205-401, Perkin Elmer). Filters are dried at 60° C. for one hour (Precision 16EG convection oven) and placed into filter sample bags (Wallac 1205-411, Perkin Elmer) with 10 mL of scintillant (Wallac 1205-440, Perkin Elmer). Sealed filters are counted on a LKB Wallac 1205 Betaplate liquid scintillation counter. Data are collected via Gterm Betaplate program v1.1 (Wallac copyright 1989-1990) and transformed into percent inhibition, calculated using the following formula: […]

Compound: COc1nsc(NC(=O)N2CC[C@@H](C)[C@@H](N(C)c3ncnc4[nH]ccc34)C2)n1 [Example 2, (3R,4R)-N-(3-methoxy-1,2,4-thiadiazol-5-yl)-4-methyl-3-[methyl(7H-pyrrolo[2,3-d]pyrimidin-4-yl)amino]piperidine-1-carboxamide]
- IC50: 50 nM

Compound: C[C@@H]1CCN(C(=O)Nc2nncs2)C[C@@H]1N(C)c1ncnc2[nH]ccc12 [Example 1, (3R,4R)-4-methyl-3-[methyl(7H-pyrrolo[2,3-d]pyrimidin-4-yl)amino]-N-(1,3,4-thiadiazol-2-yl)piperidine-1-carboxamide]
- IC50: 28.5 nM

Compound: CSc1nc(NC(=O)N2CC[C@@H](C)[C@@H](N(C)c3ncnc4[nH]ccc34)C2)n(C)n1 [Example 4, (3R,4R)-4-methyl-N-[1-methyl-3-(methylsulfanyl)-1H-1,2,4-triazol-5-yl]-3-[methyl(7H-pyrrolo[2,3-d]pyrimidin-4-yl)amino]piperidine-1-carboxamide]
- IC50: > 10000 nM

Compound: Cc1noc(NC(=O)N2CC[C@@H](C)[C@@H](N(C)c3ncnc4[nH]ccc34)C2)c1C#N [Example 3, (3R,4R)-N-(4-cyano-3-methylisoxazol-5-yl)-4-methyl-3-[methyl(7H-pyrrolo[2,3-d]pyrimidin-4-yl)amino]piperidine-1-carboxamide]
- IC50: > 10000 nM
